pEC50: −log10 of the molar value. Read-outs that look alike come from different tables or passages of the source.
Experiments:
[1] = target: T1, human M3 receptor (Homo sapiens, UniProt P20309); assay: HTRF IP-One curve shift assay, M3; type: cell-based
T1 construct: expressed in transfected cells
Method: (§1) HTRF IP-One assays were performed using frozen cell aliquots prepared from CHO-K1 cell lines stably expressing human M1, M3, or M5 receptors. Cells were frozen following typical cell freezing protocols. […] Dissociated cells were quenched in full media and collected by centrifugation at 290×g for 5 min. […] 1 mL aliquots of cells were dispensed into cryovial tubes and frozen in a controlled rate cryo-freezer container at −80° C. Cells were stored at −80° C. (or in liquid nitrogen if stored for at least six months) until the day of the assay.
(§2) On the day before the assay, frozen cells were rapidly thawed in a 37° C. water bath, brought up in 20 mL of full media, and collected via centrifugation at 290×g for 5 min. […] Next, […] of cells (10,000 cells/well) were dispensed into 384-well coming plates in triplicate. Cells were incubated overnight in a 37° C., 5% CO2 cell incubator.
(§3) Then, 2 μL of test compounds were added to the cells and incubated for 10 min at 37° C. in a 5% CO2 cell incubator. Next, 2 μL of diluted agonists serially diluted in assay buffer at 7× final assay concentration was added to assay plates. Finally, assay plates were incubated for two hours at 37° C. in a 5% CO2 cell incubator.
(§4) Six μL of IP-1 detection reagents (IP-One Gq HTRF kit, Cisbio Cat #62IPAPEJ) were dispensed to the cells. First, the plates were incubated for two hours at room temperature (IP-One detection reagents were made according to Cisbio protocol). Then, plates were read on an Envision plate reader following the Cisbio guidelines.
(§5) Raw data for all assays was transmitted directly from plate readers into the Beacon database for processing. All assay plates contained positive and negative control wells for data normalization and scaling. […] All control wells contained DMSO at a final assay concentration that matched the test compound wells.
(§6) Counts from the standard curve wells were used to generate a sigmoidal standard curve, which was used to transform the raw counts from each well on the plate (scaling control wells and compound wells) into a pmol/well IP1 value.

[2] = target: T2, human M1 receptor (Homo sapiens, UniProt P11229); assay: HTRF IP-One curve shift assay, M1; type: cell-based
T2 construct: expressed in transfected cells
T2 sequence (P11229 1-460): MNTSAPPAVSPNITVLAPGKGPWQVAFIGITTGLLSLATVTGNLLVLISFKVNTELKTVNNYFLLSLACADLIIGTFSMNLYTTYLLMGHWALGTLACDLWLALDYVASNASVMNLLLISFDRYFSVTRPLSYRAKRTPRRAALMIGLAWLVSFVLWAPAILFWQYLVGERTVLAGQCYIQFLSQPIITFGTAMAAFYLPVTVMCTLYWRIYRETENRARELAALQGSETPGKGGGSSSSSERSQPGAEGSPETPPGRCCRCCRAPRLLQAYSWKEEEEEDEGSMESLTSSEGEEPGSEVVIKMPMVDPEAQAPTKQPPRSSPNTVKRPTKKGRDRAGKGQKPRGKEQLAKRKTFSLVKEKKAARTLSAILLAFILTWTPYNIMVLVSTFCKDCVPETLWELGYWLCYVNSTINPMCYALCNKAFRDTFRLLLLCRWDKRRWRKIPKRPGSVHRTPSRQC
Method: as §1, §2, §3, §4, §5, §6

[3] = Emraclidine concentration 41.2 nM, read-out: Emax
[4] = Emraclidine concentration 123 nM, read-out: Emax
[5] = Emraclidine concentration 370 nM
[6] = Emraclidine concentration 1110 nM, read-out: Emax
[7] = Emraclidine concentration 3330 nM, read-out: Emax
[8] = MK-4710 concentration 41.2 nM, read-out: Emax
[9] = MK-4710 concentration 123 nM, read-out: Emax
[10] = MK-4710 concentration 1110 nM, read-out: Emax
[11] = MK-4710 concentration 3330 nM, read-out: Emax

T1 sequence (P20309 whole entry): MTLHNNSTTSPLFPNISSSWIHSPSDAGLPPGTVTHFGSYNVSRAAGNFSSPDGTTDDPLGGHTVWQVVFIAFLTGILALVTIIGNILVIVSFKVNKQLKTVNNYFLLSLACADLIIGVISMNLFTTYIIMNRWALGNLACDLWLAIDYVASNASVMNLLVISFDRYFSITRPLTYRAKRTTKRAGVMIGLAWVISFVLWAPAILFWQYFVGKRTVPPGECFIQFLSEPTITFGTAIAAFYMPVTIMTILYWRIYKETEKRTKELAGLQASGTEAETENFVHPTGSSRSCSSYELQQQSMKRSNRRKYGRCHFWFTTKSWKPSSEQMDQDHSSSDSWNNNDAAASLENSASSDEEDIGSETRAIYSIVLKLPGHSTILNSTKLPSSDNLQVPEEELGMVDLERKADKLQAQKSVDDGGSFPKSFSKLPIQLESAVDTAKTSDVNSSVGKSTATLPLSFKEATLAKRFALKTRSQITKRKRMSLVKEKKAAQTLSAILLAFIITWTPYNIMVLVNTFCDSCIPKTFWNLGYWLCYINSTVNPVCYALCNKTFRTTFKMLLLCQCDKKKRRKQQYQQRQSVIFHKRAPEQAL

Compound CCCCCOc1nsnc1C1=CCCCN1C [KTX-517, 3-(1-methyl-1,4,5,6-tetrahydropyridin-2-yl)-4-(pentyloxy)-1,2,5-thiadiazole] has a pEC50 ([1]; Emraclidine concentration 0 nM) of 7.61, an Emax ([1]; Emraclidine concentration 0 nM) of 42.7% and an Emax [1, 3] of 45.3%. The Emax [1, 4] was 50.2%, the Emax at […] [1, 5] was 52.1% and the Emax [1, 6] was 54.8%. For the same compound, the Emax [1, 7] was 59.6%, the Emax at […] ([1]; Emraclidine concentration […]) was 43% and the “α (cooperativity, affinity shift)” value ([1]; M4 PAM Emraclidine) was 1.0. The “β (cooperativity, efficacy shift)” value ([1]; M4 PAM Emraclidine) was 2.8, the “τ (agonist pharmacology)” value ([1]; M4 PAM Emraclidine) was 0.0 and the “α (cooperativity, affinity shift)” value ([1]; M4 PAM MK-4710) was 7.7. The “β (cooperativity, efficacy shift)” value ([1]; M4 PAM MK-4710) was 1.1, the “τ (agonist pharmacology)” value ([1]; M4 PAM MK-4710) was 0.0 and the pEC50 ([1]; MK-4710 concentration 0 nM) was 7.47. It also gave an Emax ([1]; MK-4710 concentration 0 nM) of 46.7%, an Emax [1, 8] of 49.5% and an Emax [1, 9] of 48.3%. The Emax at […] ([1]; MK-4710 concentration 370 nM) was 53.4%, the Emax [1, 10] was 51.1% and the Emax [1, 11] was 64.4%. It also gave an Emax at […] ([1]; MK-4710 concentration […]) of 45.6%, a pEC50 ([2]; Emraclidine concentration 0 nM) of 8.15 and an Emax ([2]; Emraclidine concentration 0 nM) of 61.6%. It also gave an Emax [2, 3] of 65.6%, an Emax [2, 4] of 66.5% and an Emax at […] [2, 5] of 71.3%. It also gave an Emax [2, 6] of 72.8%, an Emax [2, 7] of 79% and an Emax at […] ([2]; Emraclidine concentration […]) of 61%. The “α (cooperativity, affinity shift)” value ([2]; M4 PAM Emraclidine) was 11.3, the “β (cooperativity, efficacy shift)” value ([2]; M4 PAM Emraclidine) was 2.2 and the “τ (agonist pharmacology)” value ([2]; M4 PAM Emraclidine) was 0.0. The “α (cooperativity, affinity shift)” value ([2]; M4 PAM MK-4710) was 3.5, the “β (cooperativity, efficacy shift)” value ([2]; M4 PAM MK-4710) was 0.6 and the “τ (agonist pharmacology)” value ([2]; M4 PAM MK-4710) was 0.0. For the same compound, the pEC50 ([2]; MK-4710 concentration 0 nM) was 8.08, the Emax [2, 8] was 81.5% and the Emax [2, 9] was 79.6%. For the same compound, the Emax at […] ([2]; MK-4710 concentration 370 nM) was 80.9%, the Emax [2, 10] was 86.1% and the Emax [2, 11] was 85.8%. For the same compound, the Emax at […] ([2]; MK-4710 concentration […]) was 77.8%.
For CCCCCCCOc1nsnc1C1=CCCCN1C [KTX-593, 3-(heptyloxy)-4-(1-methyl-1,4,5,6-tetrahydropyridin-2-yl)-1,2,5-thiadiazole], the pEC50 ([1]; Emraclidine concentration 0 nM) was 6.65, the Emax ([1]; Emraclidine concentration 0 nM) was 63.5% and the Emax [1, 3] was 63.9%. The Emax [1, 4] was 68.2%, the Emax at […] [1, 5] was 73.4% and the Emax [1, 6] was 64.6%. For the same compound, the Emax [1, 7] was 73%, the Emax at […] ([1]; Emraclidine concentration […]) was 71.1% and the “α (cooperativity, affinity shift)” value ([1]; M4 PAM Emraclidine) was 7.6. For the same compound, the “β (cooperativity, efficacy shift)” value ([1]; M4 PAM Emraclidine) was 1.1, the “τ (agonist pharmacology)” value ([1]; M4 PAM Emraclidine) was 0.0 and the “α (cooperativity, affinity shift)” value ([1]; M4 PAM MK-4710) was 6.2. The “β (cooperativity, efficacy shift)” value ([1]; M4 PAM MK-4710) was 1.6, the “τ (agonist pharmacology)” value ([1]; M4 PAM MK-4710) was 0.0 and the pEC50 ([1]; MK-4710 concentration 0 nM) was 7.35. For the same compound, the Emax ([1]; MK-4710 concentration 0 nM) was 80.8%, the Emax [1, 8] was 75.4% and the Emax [1, 9] was 66.6%. It also gave an Emax at […] ([1]; MK-4710 concentration 370 nM) of 76.7%, an Emax [1, 10] of 74.3% and an Emax [1, 11] of 86%. The Emax at […] ([1]; MK-4710 concentration […]) was 72.7%, the pEC50 ([2]; Emraclidine concentration 0 nM) was 8.00 and the Emax ([2]; Emraclidine concentration 0 nM) was 77.8%. It also gave an Emax [2, 3] of 83.1%, an Emax [2, 4] of 85.4% and an Emax at […] [2, 5] of 88.4%. The Emax [2, 6] was 85.2%, the Emax [2, 7] was 87.8% and the Emax at […] ([2]; Emraclidine concentration […]) was 83.9%. The “α (cooperativity, affinity shift)” value ([2]; M4 PAM Emraclidine) was 3.2, the “β (cooperativity, efficacy shift)” value ([2]; M4 PAM Emraclidine) was 0.8 and the “τ (agonist pharmacology)” value ([2]; M4 PAM Emraclidine) was 0.0. For the same compound, the “α (cooperativity, affinity shift)” value ([2]; M4 PAM MK-4710) was 4.1, the “β (cooperativity, efficacy shift)” value ([2]; M4 PAM MK-4710) was 0.6 and the “τ (agonist pharmacology)” value ([2]; M4 PAM MK-4710) was 0.0. For the same compound, the pEC50 ([2]; MK-4710 concentration 0 nM) was 8.06, the Emax ([2]; MK-4710 concentration 0 nM) was 83.7% and the pEC50 ([2]; MK-4710 concentration 41.2 nM) was 8.12. It also gave an Emax [2, 8] of 82.7%, a pEC50 ([2]; MK-4710 concentration 123 nM) of 8.08 and an Emax [2, 9] of 79.9%. It also gave a pEC50 ([2]; MK-4710 concentration 370 nM) of 8.19, an Emax at […] ([2]; MK-4710 concentration 370 nM) of 78.3% and a pEC50 ([2]; MK-4710 concentration 1110 nM) of 8.17. The Emax [2, 10] was 76.8%, the pEC50 ([2]; MK-4710 concentration 3330 nM) was 8.28 and the Emax [2, 11] was 76.7%. The pEC50 ([2]; MK-4710 concentration […]) was 8.06 and the Emax at […] ([2]; MK-4710 concentration […]) was 77.6%.

Source: US20250228832A1, “METHODS FOR TREATING DISORDERS AMELIORATED BY MUSCARINIC RECEPTOR ACTIVATION” (KARUNA THERAPEUTICS, INC., priority 2022, published 2025)
